Data: ChEMBL document CHEMBL5321213, “Nicolaioidesin C: An Antiausterity Agent Shows Promising Antitumor Activity in a Pancreatic Cancer Xenograft Mouse Model” (J Nat Prod, 2023)
Active and inactive are the calls of the source. The rule behind the calls is not given here.

What was measured:
MIA PaCa-2 [1] = assay: Inhibition of Akt/mTOR signaling pathway in human MIA PaCa-2 cells in nutrient-deprived medium assessed as reduction in mTOR phosphorylation at S2481 residue measured after 6 hrs by Western blot analysis; format: cell-based; conditions: dose 5-20 µM
MIA PaCa-2 [2] = assay: Preferential cytotoxicity against human MIA PaCa-2 cells in nutrient-deprived medium assessed as alteration in cell morphology by measuring rupture of cell membrane at 5 uM measured after 24 hrs by acridine orange and ethidium bromide dual fluorescent staining based imaging analysis; format: functional
MIA PaCa-2 [3] = assay: Antitumor activity against human MIA PaCa-2 cells xenografted in athymic BALB/c-nu mouse assessed as fold change in sphinganine level in tumor at 2 mg/kg/day, ip administered five times per week for 4 weeks by LC-MS analysis; format: functional
PANC-1 [4] = assay: Inhibition of autophagy in human PANC-1 cells in DMEM medium assessed as downregulation of LC3 protein expression at 5 to 20 uM measured after 6 hrs by Western blot analysis; format: functional, cell-based; conditions: dose 5-20 µM
MIA PaCa-2 [5] = assay: Antitumor activity against human MIA PaCa-2 cells xenografted in athymic BALB/c-nu mouse assessed as reduction in p-mTOR level in tumor at 2 to 10 mg/kg/day, ip administered five times per week for 4 weeks by immunohistochemistry analysis; format: functional, organism-based; conditions: dose 2-10 mg/kg/day
MIA PaCa-2 [6] = assay: Antitumor activity against human MIA PaCa-2 cells xenografted in athymic BALB/c-nu mouse assessed as reduction in LC3-1 level in tumor at 2 to 10 mg/kg/day, ip administered five times per week for 4 weeks by immunohistochemistry analysis; format: functional, organism-based; conditions: dose 2-10 mg/kg/day
MIA PaCa-2 [7] = assay: Antimetastatic activity in human MIA PaCa-2 cells in DMEM media assessed as inhibition of colony formation at 40 uM incubated for 24 hrs followed by replacement with fresh medium and measured after 10 days by crystal violet staining-based assay relative to control; format: functional
MIA PaCa-2 [8] = assay: Antitumor activity against human MIA PaCa-2 cells xenografted in athymic BALB/c-nu mouse assessed as tumor growth inhibition at 10 mg/kg/day, ip administered five times per week for 4 weeks relative to control; format: functional; conditions: MIA PaCa-2, 672 h, read-out: TGI
PANC-1 [9] = assay: Antimetastatic activity in human PANC-1 cells in nutrient-rich medium assessed as open wound area at 20 uM measured every 15 mins for 24 hrs by live cell imaging analysis (reference value: 16%); format: functional
MIA PaCa-2 [10] = assay: Antitumor activity against human MIA PaCa-2 cells xenografted in athymic BALB/c-nu mouse assessed as fold change in biotin level in tumor at 2 mg/kg/day, ip administered five times per week for 4 weeks by LC-MS analysis; format: functional
MIA PaCa-2 [11] = assay: Antitumor activity against human MIA PaCa-2 cells xenografted in athymic BALB/c-nu mouse assessed as fold change in N-acetyl-L-glutamicacid level in tumor at 10 mg/kg/day, ip administered five times per week for 4 weeks by LC-MS analysis; format: functional
[12] = Toxicity in athymic BALB/c-nu mouse xenografted with human MIA PaCa-2 cells assessed as animal death at 2 to 10 mg/kg/day, ip administered five times per week for 4 weeks; format: organism-based; conditions: in vivo, 672 h, dose 2-10 mg/kg/day
MIA PaCa-2 [13] = assay: Antitumor activity against human MIA PaCa-2 cells xenografted in athymic BALB/c-nu mouse assessed as fold change in cytidine 5'-monophosphate-Neu5Ac level in tumor at 2 mg/kg/day, ip administered five times per week for 4 weeks by LC-MS analysis; format: functional
MIA PaCa-2 [14] = assay: Antitumor activity against human MIA PaCa-2 cells xenografted in athymic BALB/c-nu mouse assessed as fold change in D-glucuronicacid level in tumor at 10 mg/kg/day, ip administered five times per week for 4 weeks by LC-MS analysis; format: functional
MIA PaCa-2 [15] = assay: Antitumor activity against human MIA PaCa-2 cells xenografted in athymic BALB/c-nu mouse assessed as fold change in lysine level in tumor at 2 mg/kg/day, ip administered five times per week for 4 weeks by LC-MS analysis; format: functional
PANC-1 [16] = assay: Preferential cytotoxicity against human PANC-1 cells in nutrient-deprived medium assessed as alteration in cell morphology by measuring cell blebbing at 5 uM measured after 24 hrs by acridine orange and ethidium bromide dual fluorescent staining based imaging analysis; format: functional
MIA PaCa-2 [17] = assay: Inhibition of autophagy in human MIA PaCa-2 cells in nutrient-deprived medium assessed as downregulation of LC3-II protein expression measured after 6 hrs by Western blot analysis; format: functional, cell-based; conditions: dose 5-20 µM
MIA PaCa-2 [18] = assay: Antitumor activity against human MIA PaCa-2 cells xenografted in athymic BALB/c-nu mouse assessed as fold change in glutamic acid level in tumor at 2 mg/kg/day, ip administered five times per week for 4 weeks by LC-MS analysis; format: functional
PANC-1 [19] = assay: Inhibition of Akt/mTOR signaling pathway in human PANC-1 cells in nutrient-deprived medium assessed as reduction in mTOR phosphorylation at S2481 residue measured after 6 hrs by Western blot analysis; format: cell-based; conditions: dose 5-20 µM
PANC-1 [20] = assay: Antimetastatic activity in human PANC-1 cells in DMEM media assessed as inhibition of colony formation at 40 uM incubated for 24 hrs followed by replacement with fresh medium and measured after 10 days by crystal violet staining-based assay relative to control; format: functional
MIA PaCa-2 [21] = assay: Antitumor activity against human MIA PaCa-2 cells xenografted in athymic BALB/c-nu mouse assessed as reduction in LC3-II level in tumor at 2 to 10 mg/kg/day, ip administered five times per week for 4 weeks by immunohistochemistry analysis; format: functional, organism-based; conditions: dose 2-10 mg/kg/day
MIA PaCa-2 [22] = assay: Antitumor activity against human MIA PaCa-2 cells xenografted in athymic BALB/c-nu mouse assessed as fold change in cytidine level in tumor at 10 mg/kg/day, ip administered five times per week for 4 weeks by LC-MS analysis; format: functional
MIA PaCa-2 [23] = assay: Antitumor activity against human MIA PaCa-2 cells xenografted in athymic BALB/c-nu mouse assessed as fold change in phenyl alanine level in tumor at 10 mg/kg/day, ip administered five times per week for 4 weeks by LC-MS analysis; format: functional
MIA PaCa-2 [24] = assay: Antitumor activity against human MIA PaCa-2 cells xenografted in athymic BALB/c-nu mouse assessed as fold change in tetramethyl urea level in tumor at 10 mg/kg/day, ip administered five times per week for 4 weeks by LC-MS analysis; format: functional
MIA PaCa-2 [25] = assay: Antitumor activity against human MIA PaCa-2 cells xenografted in athymic BALB/c-nu mouse assessed as fold change in 1-aminocyclopropanecarboxylicacid level in tumor at 10 mg/kg/day, ip administered five times per week for 4 weeks by LC-MS analysis; format: functional
MIA PaCa-2 [26] = assay: Antitumor activity against human MIA PaCa-2 cells xenografted in athymic BALB/c-nu mouse assessed as fold change in leucine level in tumor at 2 mg/kg/day, ip administered five times per week for 4 weeks by LC-MS analysis; format: functional
MIA PaCa-2 [27] = assay: Antitumor activity against human MIA PaCa-2 cells xenografted in athymic BALB/c-nu mouse assessed as fold change in 4-(methylthio)-2-oxobutyricacid level in tumor at 10 mg/kg/day, ip administered five times per week for 4 weeks by LC-MS analysis; format: functional
MIA PaCa-2 [28] = assay: Antimetastatic activity in human MIA PaCa-2 cells in DMEM media assessed as inhibition of colony formation at 20 uM incubated for 24 hrs followed by replacement with fresh medium and measured after 10 days by crystal violet staining-based assay relative to control; format: functional

## COc1cc(O)c(C(=O)[C@@H]2CC=C(CCC=C(C)C)C[C@H]2c2ccccc2)c(O)c1
MIA PaCa-2 [1]
  inhibition: Dose-Dependent Effect
MIA PaCa-2 [2]
  Activity: Active
MIA PaCa-2 [3]
  fold change (FC): 1.87
PANC-1 [4]
  inhibition: inactive
MIA PaCa-2 [5]
  Activity: Active
MIA PaCa-2 [6]
  Activity: Active
MIA PaCa-2 [7]
  inhibition at 40 µM: 99%
MIA PaCa-2 [8]
  inhibition in vivo at 10 mg/kg/day: 68%
PANC-1 [9]
  Activity: 36%
MIA PaCa-2 [10]
  fold change (FC): 0.86
MIA PaCa-2 [11]
  fold change (FC): 0.28
[12]
  Activity: Non-Toxic
MIA PaCa-2 [13]
  fold change (FC): 0.43
MIA PaCa-2 [14]
  fold change (FC): 0.68
MIA PaCa-2 [15]
  fold change (FC): 0.32
PANC-1 [16]
  Activity: Active
MIA PaCa-2 [17]
  inhibition: Dose-Dependent Effect
MIA PaCa-2 [18]
  fold change (FC): 0.41
PANC-1 [19]
  inhibition: Dose-Dependent Effect
PANC-1 [20]
  inhibition at 40 µM: 92%
MIA PaCa-2 [21]
  Activity: Active
MIA PaCa-2 [22]
  fold change (FC): 0.35
MIA PaCa-2 [23]
  fold change (FC): 0.43
MIA PaCa-2 [24]
  fold change (FC): 0.51
MIA PaCa-2 [25]
  fold change (FC): 0.61
MIA PaCa-2 [26]
  fold change (FC): 0.43
MIA PaCa-2 [27]
  fold change (FC): 0.41
MIA PaCa-2 [28]
  inhibition at 20 µM: 95%
